Results: paper PMC3660563, “High-Throughput Screening for GPR119 Modulators Identifies a Novel Compound with Anti-Diabetic Efficacy in db/db Mice” (PLoS ONE, 2013)
Values belong to the molecule of their own block, whether it stands above or below them.

Key:
db/db mice [1] = system: db/db mice; design: method as in the literature (reference number not given); settings: ref the literature (reference number not given); cited from earlier work
human GPR119 [2] = target: T1, human GPR119 (Homo sapiens, UniProt Q8TDV5); test: cAMP accumulation assay (HTRF) in HEK293-hGPR119 cells; type: cell-based
T1 construct: expressed in transfected cells
T1 sequence (Q8TDV5 1-335): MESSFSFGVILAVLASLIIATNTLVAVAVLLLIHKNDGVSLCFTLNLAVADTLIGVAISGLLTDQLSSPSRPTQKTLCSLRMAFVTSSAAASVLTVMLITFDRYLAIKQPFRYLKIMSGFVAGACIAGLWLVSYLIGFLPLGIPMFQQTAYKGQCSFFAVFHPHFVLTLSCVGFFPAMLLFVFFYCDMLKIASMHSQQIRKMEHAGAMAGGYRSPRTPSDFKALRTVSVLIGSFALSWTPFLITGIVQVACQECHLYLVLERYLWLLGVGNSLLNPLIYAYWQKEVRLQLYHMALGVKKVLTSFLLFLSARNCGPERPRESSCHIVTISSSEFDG
Procedure: (§1) HEK293 cells stably transfected with a human GPR119 vector and a cAMP response element-driven luciferase reporter plasmid (HEK293-hGPR119 cells) and HEK293 cells transfected only with a cAMP response element-driven luciferase reporter plasmid (control HEK293 cells) were cultured in Dulbecco’s modified Eagle medium (DMEM) (Invitrogen, Carlsbad, CA, USA) supplemented with 10% fetal bovine serum (FBS), 4.5 g/l glucose, 100 units/ml penicillin and 100 µg/ml streptomycin at 37°C in 5% CO2. MIN6 cells were maintained in DMEM containing 15% FBS, 4.5 g/l glucose, 100 units/ml penicillin and 100 µg/ml streptomycin at 37°C in 5% CO2. GLUTag cells were maintained in DMEM containing 10% FBS, 1 g/l glucose, 100 units/ml penicillin and 100 µg/ml streptomycin at 37°C in 5% CO2.
cAMP accumulation was measured using HTRF-cAMP dynamic kit (Cisbio International, Gif sur Yvette Cedex, France) according to manufacturer's instructions. Briefly, HEK293-hGPR119 cells were suspended in assay buffer (DMEM, 1 mM 3-isobutyl-1-methylxanthine) and transferred to 384-well microplates (Greiner Bio-One, Frickenhausen, Germany) at a density of 16,000 cells/well. Plates were incubated for 30 min at 37°C before adding test compounds. After treatment for 30 min at 37°C, the reactions were stopped by addition of lysis buffer containing HTRF reagents. Plates were then incubated for 60 min at room temperature, and time-resolved FRET signals were measured after excitation at 320 nm. Both the emission signal from the europium cryptate-labeled anti-cAMP antibody (620 nm) and the FRET signal resulting from the labeled cAMP-d2 (665 nm) were detected by EnVision (PerkinElmer).

db/db mice [3] = test: Chronic oral treatment of diabetic db/db mice; type: in vivo; settings: for inhibition of glycemic excursion, oral glucose tolerance test, vs vehicle: glucose 3 g/kg; for food intake and body weight: 6-week once-daily oral treatment
Procedure: Animal experimentation was conducted in accordance with the regulations adopted by the Animal Care and Use Committee, Shanghai Institute of Materia Medica, Chinese Academy of Sciences (approval number: SIMM-2012-07-WMW-04). Male C57BL/KsJ db/db mice (Model Animal Research Center of Nanjing University, Nanjing, China) were housed in a temperature-controlled room (22±2°C), with a light/dark cycle of 12 h. At 6 weeks of age, mice were randomly assigned to chronic treatments. The experimental groups and respective doses of compounds were as follows: (1) 0.5% w/v sodium carboxyl methyl cellulose (CMC), (2) 10 mg/kg AR-231453, (3) 1 mg/kg sitagliptin (Beijing Huikang Boyuan Chemical Technology Co., Ltd., Beijing, China), (4) 10 mg/kg AR-231453 plus 1 mg/kg sitagliptin, (5) 100 mg/kg MW1219, and (6) 100 mg/kg MW1219 plus 1 mg/kg sitagliptin. Each regimen was administered once daily by oral gavaging for 6 weeks. Body weight and food intake were recorded every other day and fasting glucose levels measured every week. Oral glucose tolerance test was performed in overnight-fasting mice every other week. After six weeks of treatment, HbA1c were quantified, plasma insulin and GLP-1 contents were measured using respective ELISA kit. For oral glucose tolerance test, overnight fasting mice (n = 6/treatment) were given compounds orally at desired doses and after 30 min, an oral glucose bonus (3 g/kg) was delivered. Plasma glucose levels were determined at desired time points over a 2-h period using blood collected from the tail vein. For circulating GLP-1 analysis, compounds were administered orally to fasting animals followed by an oral glucose bolus (3 g/kg) 30 min later. Blood was drawn 2 min thereafter in Eppendorf tubes containing EDTA and a DPP-4 inhibitor. Plasma samples were obtained via centrifugation and assayed for active GLP-1 by the ELISA kit. Blood was collected again after 20 min to determine insulin levels.

human GPR119 [4] = target: T1, human GPR119; test: Reporter gene assay (CRE-luciferase) in HEK293-hGPR119 cells; type: cell-based; settings: for allosteric modulation of OEA potency: compound added to OEA concentration response
Procedure: as §1
(§2) HEK293-hGPR119 cells or control HEK293 cells were seeded onto 384-well plates with a density of 16,000 cells per well. At the time of assaying, AR-231453 or test compounds dissolved in DMSO were added. After 42 h of incubation at 37°C and 5% CO2 in a cell culture incubator, cells were lysed and quantified for luciferase activity using the Steady-Glo luciferase assay system (Promega, Madison, WI, USA) according to manufacturer’s protocol. For allosteric activity studies, test compounds were 5-fold serially diluted and added to AR-231453 or OEA concentration response reaction. Luciferase signals were determined with EnVision (PerkinElmer, Boston, MA, USA).

control HEK293 cells [5] = test: Reporter gene assay in control HEK293 cells (no GPR119); type: cell-based
Procedure: as §1
as §2, with “For allosteric activity studies, test compounds were 5-fold serially diluted and added to AR-231453 or OEA concentration response reaction.” left out

GLUTag cells = test: GLP-1 release assay in GLUTag cells; type: cell-based, murine; settings: for GLP-1 release, low glucose medium: 2.8 mM glucose
Procedure: as §1
GLUTag cells were plated in 24-well plates on day 1 in low glucose DMEM supplemented with 10% FBS. Culture medium was replaced with DMEM (2.8 mM glucose) supplemented with 10% FBS 24 h before analysis of GLP-1 release. On the day of experiment, cells were washed twice with PBS and incubated with different compounds at desired concentrations in serum-free DMEM with 2.8 mM or 16.8 mM glucose for 1 h at 37°C and 5% CO2. The supernatants were collected by centrifugation for 3 min. GLP-1 in the supernatant was detected by a GLP-1 ELISA kit (Linco Research Laboratory).
(§3) MIN6 and GLUTag cells were cultured as described above. siRNA targeting murine GPR119 coding sequences (Forward: 5′-[…]-3′, Reverse: 5′-[…]-3′) was purchased from GenePharma company (Shanghai, China). Transfection was performed using siRNA and Lipofectamine 2000 (Invitrogen, Burlington, ON, Canada) as instructed by the manufacturer. After 36 h, knockdown efficiency of siRNA was quantified by real-time RT-PCR, and cells were used for secretion experiments.

MIN6 cells = test: Insulin secretion assay in MIN6 cells; type: cell-based, mouse; settings: for glucose-stimulated insulin secretion vs DMSO control: 16.8 mM glucose, 1 h, MW1219 at 15 µM and 50 µM (P<0.05), OEA at 10 µM (P<0.01)
Procedure: as §1
Insulin-secreting MIN6 cells were plated in 96-well plates (20,000 cells per well) for 2 days. On the day of experiment, culture medium was aspirated and cells were washed twice with KRBH buffer. Cells were then placed at 37°C for 30 min in KRBH containing 2.8 mM glucose. Test compounds were dissolved in either 2.8 or 16.8 mM glucose medium and added to cells for 1 h. The supernatants were collected by centrifugation at 800×g for insulin measurements. Insulin content in the supernatant was determined using an insulin ELISA kit from Linco Research Laboratory (Billerica, MA, USA).
as §3

control HEK293 cells [6] = test: cAMP accumulation assay in control HEK293 cells; type: cell-based
Procedure: as §1
cAMP accumulation was measured using HTRF-cAMP dynamic kit (Cisbio International, Gif sur Yvette Cedex, France) according to manufacturer's instructions. […] Plates were then incubated for 60 min at room temperature, and time-resolved FRET signals were measured after excitation at 320 nm. Both the emission signal from the europium cryptate-labeled anti-cAMP antibody (620 nm) and the FRET signal resulting from the labeled cAMP-d2 (665 nm) were detected by EnVision (PerkinElmer).

[7] = reporter gene and cAMP accumulation assays
[8] = 100 mg/kg MW1219 plus 1 mg/kg sitagliptin, oral, once daily, 6 weeks
[9] = MW1219 100 mg/kg, sitagliptin 1 mg/kg
[10] = HEK293-hGPR119 cells, 42 h incubation, read-out: EC50, luciferase expression
[11] = MW1219 0 μM (Table S3), read-out: EC50 of OEA
[12] = in presence of MW1219 1 μM, read-out: EC50 of OEA
[13] = in presence of MW1219 10 μM, read-out: EC50 of OEA

EC50 (human GPR119 [2]; OEA 0 μM (Table S2), read-out: EC50 of AR-231453): 1.19 ± 0.16 nM
allosteric modulation of OEA potency (human GPR119 [4]; [7]): without affecting its potency
SMILES: CC(C)c1noc(C2CCN(c3ncnc(Nc4ccc(S(C)(=O)=O)cc4F)c3[N+](=O)[O-])CC2)n1 [AR-231453]
reduction of food intake (db/db mice [1]): only at very high doses
feeding and weight gain (db/db mice [3]; AR-231453 in combination with sitagliptin): did not induce noticeable effects

efficacy, cAMP accumulation, relative to forskolin (human GPR119 [2]; 50 µM MW1219, HEK293-hGPR119 cells): about 40%
efficacy relative to forskolin in the reporter gene assay (human GPR119 [4]; HEK293-hGPR119 cells): same level of efficacy as forskolin
EC50 (human GPR119 [4]; [10]): 960 ± 80 nM
allosteric modulation of OEA potency (human GPR119 [4]; [7]): not PAM for OEA
SMILES: CCOC(=O)c1ccc2oc3ccc(O)cc3c(=O)c2c1 [MW1219]
activity on luciferase expression in the absence of GPR119 (control HEK293 cells [5]): did not show any activity
efficacy compared to forskolin (control HEK293 cells [5]; Figure 2C): 10%
GLP-1 release after GPR119 siRNA knockdown (GLUTag cells; 20 µM and 50 µM MW1219, siRNA-treated GLUTag cells): indistinguishable from the medium control
GLP-1 release, low glucose medium (GLUTag cells; 1 h): Neither MW1219 nor OEA exhibited any effect
GLP-1 released to supernatant, high glucose (GLUTag cells; 16.8 mM glucose, 1 h): elevated dose-dependently
circulating GLP-1 levels (db/db mice [3]; 100 mg/kg MW1219, 6 weeks, 2 min after oral glucose 3 g/kg): not elevated
insulin response to a glucose bolus (db/db mice [3]; 100 mg/kg MW1219, 6 weeks, 20 min after oral glucose 3 g/kg): notably more pronounced than that of controls
inhibition of glycemic excursion, oral glucose tolerance test, vs vehicle (db/db mice [3]; 100 mg/kg MW1219, after 6 weeks, P<0.05): 8.6%
reduction of fasting blood glucose vs control (db/db mice [3]; 100 mg/kg MW1219, oral, once daily, 6 weeks): 16%
HbA1c decrease compared with the control (db/db mice [3]; 100 mg/kg MW1219, oral, once daily, 6 weeks, P<0.05): 0.67%
inhibition of glycemic excursion, oral glucose tolerance test, vs vehicle (db/db mice [3]; 100 mg/kg MW1219 plus 1 mg/kg sitagliptin, after 6 weeks, P<0.001): 18.6%
HbA1c change (db/db mice [3]; [8]): no difference
fasting blood glucose vs mice that received sitagliptin alone (db/db mice [3]; [8]): significantly lower
reduction of fasting blood glucose vs control (db/db mice [3]; [8]): 29%
food intake and body weight (db/db mice [3]; [9]): neither food intake inhibition nor weight loss
fasting plasma glucose levels and glucose tolerance, pilot dose-response studies (db/db mice [3]; MW1219 100 mg/kg, data not shown): improved both fasting plasma glucose levels and glucose tolerance
insulin secretion after GPR119 siRNA knockdown (MIN6 cells; 15 µM MW1219, GPR119 siRNA-treated MIN6 cells): suppressed by siRNA
insulin release under low glucose (MIN6 cells; 2.8 mM glucose): no effect
glucose-stimulated insulin secretion vs DMSO control (MIN6 cells): elevated insulin significantly
cAMP increase in control cells (control HEK293 cells [6]): had no influence

EC50 (human GPR119 [2]; [11]): 1690 ± 170 nM
EC50 (human GPR119 [2]; [12]): 1830 ± 240 nM
EC50 (human GPR119 [2]; [13]): 1410 ± 110 nM
efficacy on GPR119 (human GPR119 [4]; 1 µM OEA, HTS luciferase assay): 15%
EC50 (human GPR119 [4]; AR-231453 0 nM (Table S1), read-out: EC50 of OEA): 2810 ± 210 nM
EC50 (human GPR119 [4]; [10]): 2780 ± 180 nM
EC50 (human GPR119 [4]; [11]): 2890 ± 610 nM
EC50 (human GPR119 [4]; [12]): 3090 ± 680 nM
EC50 (human GPR119 [4]; [13]): 2560 ± 470 nM
allosteric modulation of AR-231453 potency (human GPR119 [4]; reporter gene and cAMP accumulation assays, compound added to AR-231453 concentration response): did not alter the potency of AR-231453
SMILES: CCCCCCCC/C=C\CCCCCCCC(=O)NCCO [OEA, oleoylethanolamide]
GLP-1 release, low glucose medium (GLUTag cells; 1 h): Neither MW1219 nor OEA exhibited any effect
glucose-stimulated insulin secretion vs DMSO control (MIN6 cells): elevated insulin significantly

SMILES: N[C@@H](CC(=O)N1CCn2c(nnc2C(F)(F)F)C1)Cc1cc(F)c(F)cc1F [sitagliptin, reference compound]
HbA1c change (db/db mice [3]; 1 mg/kg sitagliptin, oral, once daily, 6 weeks): no difference
food intake and body weight (db/db mice [3]; [9]): failed to suppress food intake and decrease body weight
plasma GLP-1 levels (db/db mice [3]; sitagliptin 1 mg/kg): raised plasma GLP-1 levels
